Several values for one entry are separate records, joined by “and”; a condition that tells them apart may be missing. Equal entries are not always repeated.

This assay concerns the target DNA topoisomerase II (Homo sapiens) (UniProt P11388+Q02880). The assay can be described thus: Percentage of intracellular covalent DNA-topoisomerase II complexes formed. It is filed as cell-based.
`COc1cc([C@@H]2c3cc4c(cc3[C@@H](NC(=O)c3ccccc3F)[C@H]3COC(=O)[C@H]23)OCO4)cc(OC)c1O` showed a Complex formation of 128%.

Molecule `COc1cc([C@@H]2c3cc4c(cc3[C@@H](NC(=O)c3ccc(C(C)=O)cc3)[C@H]3COC(=O)[C@H]23)OCO4)cc(OC)c1O` yielded a Complex formation of 124%.

As to `COc1cc([C@@H]2c3cc4c(cc3[C@@H](NCc3cccc(Cl)c3)[C@H]3COC(=O)[C@H]23)OCO4)cc(OC)c1O`, the Complex formation worked out at 159%.

The molecule `COc1cc([C@@H]2c3cc4c(cc3C(Nc3ccc(CC#N)cc3)[C@H]3COC(=O)[C@H]23)OCO4)cc(O)c1O` (stereo partly specified) displayed a Complex formation of 109%.

On to `COc1cc([C@@H]2c3cc4c(cc3[C@@H](Nc3ccccc3F)[C@H]3COC(=O)[C@H]23)OCO4)cc(OC)c1O`, for which the Complex formation stood at 121%.

For `COc1cc([C@@H]2c3cc4c(cc3[C@@H](Nc3ccc(O)cc3)[C@H]3COC(=O)[C@H]23)OCO4)cc(OC)c1O`, the Complex formation was determined as 211%.

In turn, `COc1cc([C@@H]2c3cc4c(cc3[C@@H](Nc3ccc(F)cc3)[C@H]3COC(=O)[C@H]23)OCO4)cc(OC)c1O` yielded a Complex formation of 213%.

For the molecule `COc1cc([C@@H]2c3cc(O)c(O)cc3[C@@H](Nc3ccc([N+](=O)[O-])cc3)[C@H]3COC(=O)[C@H]23)cc(OC)c1OC`, the Complex formation was 23%.

The molecule `COC1=CC([C@@H]2c3cc4c(cc3C(NC(=O)N(C)N=O)[C@H]3COC(=O)[C@H]23)OCO4)=CC(=O)C1=O` (stereo partly specified) came in with a Complex formation of 41%.

Consider `COc1cc([C@@H]2c3cc4c(cc3[C@@H](Nc3cccc(Cl)c3)[C@H]3COC(=O)[C@H]23)OCO4)cc(OC)c1O`, for which the Complex formation was 51%.

Molecule `COC(=O)c1cc(N[C@@H]2c3cc4c(cc3[C@@H](c3cc(OC)c(O)c(OC)c3)[C@H]3C(=O)OC[C@@H]32)OCO4)cc(C(=O)OC)c1` came in with a Complex formation of 50%.

`COc1cc([C@@H]2c3cc4c(cc3[C@@H](Sc3ccc(O)cc3)[C@H]3COC(=O)[C@H]23)OCO4)cc(OC)c1O`: the Complex formation came out at 10%.

Regarding `COc1cc([C@@H]2c3cc4c(cc3[C@@H](Nc3cnc5ccccc5c3)[C@H]3COC(=O)[C@H]23)OCO4)cc(OC)c1O`, the Complex formation came out at 123%.

For `COc1cc([C@@H]2c3cc(O)c(O)cc3[C@@H](Nc3ccccc3)[C@H]3COC(=O)[C@H]23)cc(OC)c1O`, the Complex formation came out at 4%.

Consider `COc1cc([C@@H]2c3cc4c(cc3[C@@H](Nc3ccc(Br)cc3)[C@H]3COC(=O)[C@H]23)OCO4)cc(OC)c1O`, for which the Complex formation is 179%.

`COc1cc2c(cc1OC)[C@@H](c1cc(OC)c(O)c(OC)c1)[C@H]1C(=O)OC[C@@H]1C2Nc1ccc([N+](=O)[O-])cc1` (stereo partly specified) registered a Complex formation of 75%.

Turning to `COC(=O)c1ccc(N[C@@H]2c3cc4c(cc3[C@@H](c3cc(OC)c(O)c(OC)c3)[C@H]3C(=O)OC[C@@H]32)OCO4)cc1O`, the Complex formation turned out to be 129%.

Turning to `COc1cc([N+](=O)[O-])ccc1N[C@@H]1c2cc3c(cc2[C@@H](c2cc(OC)c(O)c(OC)c2)[C@H]2C(=O)OC[C@@H]21)OCO3`, the Complex formation amounted to 83%.

`COc1ccc(NC2c3cc4c(cc3[C@@H](c3cc(O)c(O)c(OC)c3)[C@H]3C(=O)OC[C@H]23)OCO4)cc1` (stereo partly specified) returned a Complex formation of 96%.

On to `COc1cc([C@@H]2c3cc(O)c(O)cc3[C@@H](Nc3cccc(O)c3)[C@H]3COC(=O)[C@H]23)cc(OC)c1O`, for which the Complex formation turned out to be 18%.

Take `COc1cc([C@@H]2c3cc4c(cc3[C@@H](Nc3cccc(O)c3)[C@H]3COC(=O)[C@H]23)OCO4)cc(OC)c1O`: the Complex formation is 290%.

On to `COc1cc([C@@H]2c3cc4c(cc3[C@@H](NCc3cccc([N+](=O)[O-])c3)[C@H]3COC(=O)[C@H]23)OCO4)cc(OC)c1O`, for which the Complex formation is 130%.

In turn, `COc1cc([C@@H]2c3cc4c(cc3[C@@H](NC(=O)c3ccccc3O)[C@H]3COC(=O)[C@H]23)OCO4)cc(OC)c1O` returned a Complex formation of 160%.

As to `COc1cc([C@@H]2c3cc4c(cc3[C@@H](NCCCN(C)C)[C@H]3COC(=O)[C@H]23)OCO4)cc(OC)c1O`, the Complex formation is 179% and 186%.

In the case of `COc1cc([C@@H]2c3cc4c(cc3[C@@H](Nc3cc(C(F)(F)F)cc(C(F)(F)F)c3)[C@H]3COC(=O)[C@H]23)OCO4)cc(OC)c1O`, the Complex formation stood at 21%.

Regarding `COc1cc([C@@H]2c3cc4c(cc3[C@@H](Nc3ccc(-c5nc6ccccc6[nH]5)cc3)[C@H]3COC(=O)[C@H]23)OCO4)cc(OC)c1O`, the Complex formation was found to be 128%.

Molecule `COc1cc([C@@H]2c3cc4c(cc3[C@@H](NCc3ccc(C(F)(F)F)cc3)[C@H]3COC(=O)[C@H]23)OCO4)cc(OC)c1O` yielded a Complex formation of 99%.

As for `COc1cc([C@@H]2c3cc4c(cc3[C@@H](Nc3ccccc3Cl)[C@H]3COC(=O)[C@H]23)OCO4)cc(OC)c1O`, the Complex formation stood at 32%.

On to `COc1cc([C@@H]2c3cc4c(cc3[C@@H](O)[C@H]3COC(=O)[C@H]23)OCO4)c(Cl)c(OC)c1O`, for which the Complex formation stood at 15.6%.

Consider `COc1cc([C@@H]2c3cc4c(cc3[C@@H](NCc3cccc(C#N)c3)[C@H]3COC(=O)[C@H]23)OCO4)cc(OC)c1O`, for which the Complex formation came to 225%.

Molecule `CCC(C)N[C@@H]1c2cc3c(cc2[C@@H](c2cc(OC)c(O)c(OC)c2)[C@H]2C(=O)OC[C@@H]21)OCO3` (stereo partly specified) came in with a Complex formation of 73%.

Regarding `COc1cc([C@@H]2c3cc4c(cc3[C@@H](Nc3ccc(Oc5ccccc5)cc3)[C@H]3COC(=O)[C@H]23)OCO4)cc(OC)c1O`, the Complex formation is 97%.

Molecule `COc1cc([C@@H]2c3cc(O)c(O)cc3[C@@H](Nc3ccc([N+](=O)[O-])cc3)[C@H]3COC(=O)[C@H]23)cc(OC)c1O` had a Complex formation of 99%.

For `COc1cc([C@@H]2c3cc4c(cc3[C@@H](NCc3ccccc3)[C@H]3COC(=O)[C@H]23)OCO4)cc(OC)c1O`, the Complex formation turned out to be 181%.

Molecule `COc1cc([N+](=O)[O-])c(OC)cc1N[C@@H]1c2cc3c(cc2[C@@H](c2cc(OC)c(O)c(OC)c2)[C@H]2C(=O)OC[C@@H]21)OCO3` yielded a Complex formation of 4.4%.

`COc1cc([C@@H]2c3cc4c(cc3C(Nc3ccc([N+](=O)[O-])cc3)[C@H]3COC(=O)[C@H]23)OCO4)cc(O)c1O` (stereo partly specified) had a Complex formation of 200%.

As for `COC1=CC([C@@H]2c3cc4c(cc3C(NC(N=O)C(C)C)[C@H]3COC(=O)[C@H]23)OCO4)=CC(=O)C1(O)CC(C)=O` (stereo partly specified), the Complex formation was determined as 1%.

The molecule `COc1cc([C@@H]2c3cc4c(cc3[C@@H](Nc3cccc(C#N)c3)[C@H]3COC(=O)[C@H]23)OCO4)cc(OC)c1O` displayed a Complex formation of 137%.

Molecule `COc1cc([C@@H]2c3cc4c(cc3[C@@H](N)[C@H]3COC(=O)[C@H]23)OCO4)cc(OC)c1O` registered a Complex formation of 36.4%.

`COc1cc([C@@H]2c3cc4c(cc3[C@@H](NC(=O)Nc3ccc(Cl)cc3)[C@H]3COC(=O)[C@H]23)OCO4)cc(OC)c1O` displayed a Complex formation of 125%.

For `COc1cc([C@@H]2c3cc4c(cc3[C@@H](NCc3ccccc3N)[C@H]3COC(=O)[C@H]23)OCO4)cc(OC)c1O`, the Complex formation was 184%.

Regarding `COc1cc([C@@H]2c3cc4c(cc3[C@@H](NC(=O)c3ccc(F)cc3)[C@H]3COC(=O)[C@H]23)OCO4)cc(OC)c1O`, the Complex formation was found to be 117%.

The molecule `COc1cc([C@@H]2c3cc4c(cc3[C@@H](Nc3ccc([N+](=O)[O-])cc3)[C@H]3COC(=O)[C@H]23)OCO4)cc(OC)c1O` registered a Complex formation of 323%.

In turn, `COc1cc([C@@H]2c3cc4c(cc3[C@@H](NCc3ccc(C#N)cc3)[C@H]3COC(=O)[C@H]23)OCO4)cc(OC)c1O` had a Complex formation of 284%.

For `COc1cc([C@@H]2c3cc4c(cc3[C@@H](Nc3cccc(Br)c3)[C@H]3COC(=O)[C@H]23)OCO4)cc(OC)c1O`, the Complex formation came out at 62%.

For the molecule `COc1cc([C@@H]2c3cc4c(cc3[C@@H](Nc3ccc(NC(=O)c5cc([N+](=O)[O-])cn5C)cc3)[C@H]3COC(=O)[C@H]23)OCO4)cc(OC)c1O`, the Complex formation stood at 100%.

For `COc1ccc(N[C@@H]2c3cc4c(cc3[C@@H](c3cc(OC)c(O)c(OC)c3)[C@H]3C(=O)OC[C@@H]32)OCO4)cc1OC`, the Complex formation was determined as 180%.

The molecule `COc1cc([C@@H]2c3cc(O)c(O)cc3C(Nc3ccc(F)cc3)[C@H]3COC(=O)[C@H]23)cc(OC)c1O` (stereo partly specified) came in with a Complex formation of 52%.

In turn, `COc1cc([C@@H]2c3cc4c(cc3[C@@H](Nc3ccc(N5CCOCC5)cc3)[C@H]3COC(=O)[C@H]23)OCO4)cc(OC)c1O` came in with a Complex formation of 140%.

Molecule `COc1cc([C@@H]2c3cc4c(cc3[C@@H](NCc3ccc([N+](=O)[O-])cc3)[C@H]3COC(=O)[C@H]23)OCO4)cc(OC)c1O` had a Complex formation of 216%.

In the case of `COc1cc([C@@H]2c3cc4c(cc3[C@@H](Nc3ccc(Cl)cc3)[C@H]3COC(=O)[C@H]23)OCO4)cc(OC)c1O`, the Complex formation came to 99%.

`COC(=O)c1ccc(NC2c3cc4c(cc3[C@@H](c3cc(O)c(O)c(OC)c3)[C@H]3C(=O)OC[C@H]23)OCO4)cc1` (stereo partly specified) came in with a Complex formation of 175%.

Turning to `CCOC(=O)c1ccc(NC2c3cc(O)c(O)cc3[C@@H](c3cc(OC)c(O)c(OC)c3)[C@H]3C(=O)OC[C@H]23)cc1` (stereo partly specified), the Complex formation turned out to be 138%.

For the molecule `COc1cc([C@@H]2c3cc4c(cc3[C@@H](Nc3cccc(CO)c3)[C@H]3COC(=O)[C@H]23)OCO4)cc(OC)c1O`, the Complex formation stood at 235%.

The molecule `COc1cc([C@@H]2c3cc4c(cc3[C@@H](NCc3ccccc3F)[C@H]3COC(=O)[C@H]23)OCO4)cc(OC)c1O` showed a Complex formation of 126%.

`COc1cc([C@@H]2c3cc4c(cc3[C@@H](Oc3ccc(O)cc3)[C@H]3COC(=O)[C@H]23)OCO4)cc(OC)c1O` yielded a Complex formation of 34%.

In turn, `COc1ccc([N+](=O)[O-])cc1N[C@@H]1c2cc3c(cc2[C@@H](c2cc(OC)c(O)c(OC)c2)[C@H]2C(=O)OC[C@@H]21)OCO3` registered a Complex formation of 12%.

As for `COc1cc([C@@H]2c3cc(O)c(O)cc3C(Nc3ccc(C#N)cc3)[C@H]3COC(=O)[C@H]23)cc(OC)c1O` (stereo partly specified), the Complex formation amounted to 62%.

In turn, `COc1cc([C@@H]2c3cc(O)c(O)cc3C(Nc3ccc(F)cc3)[C@H]3COC(=O)[C@H]23)cc(OC)c1OC` (stereo partly specified) registered a Complex formation of 11%.

In turn, `CCOC(=O)c1ccc(NC2c3cc(OC)c(OC)cc3[C@@H](c3cc(OC)c(O)c(OC)c3)[C@H]3C(=O)OC[C@H]23)cc1` (stereo partly specified) gave a Complex formation of 127%.

Regarding `COc1cc([C@@H]2c3cc4c(cc3[C@@H](NC(=O)c3cccc(C#N)c3)[C@H]3COC(=O)[C@H]23)OCO4)cc(OC)c1O`, the Complex formation worked out at 149%.

Source of the values: ChEMBL document CHEMBL1135425, “Antitumor agents. 213. Modeling of epipodophyllotoxin derivatives using variable selection k nearest neighbor QSAR method” (J Med Chem, 2002).
